This passage reports IC50 results from patent US12157746B2, “Tetrahydro-1H-pyrazino[2,1-a]isoindolylquinoline compounds for the treatment of autoimmune disease” (F. HOFFMANN-LA ROCHE AG, priority 2018, dated 2024).

The structures appear in SMILES notation. Some results are limits rather than exact numbers.

This assay has as its target T1, human TLR8 (Homo sapiens, UniProt Q9NR97).
T1 sequence (Q9NR97 27-1041): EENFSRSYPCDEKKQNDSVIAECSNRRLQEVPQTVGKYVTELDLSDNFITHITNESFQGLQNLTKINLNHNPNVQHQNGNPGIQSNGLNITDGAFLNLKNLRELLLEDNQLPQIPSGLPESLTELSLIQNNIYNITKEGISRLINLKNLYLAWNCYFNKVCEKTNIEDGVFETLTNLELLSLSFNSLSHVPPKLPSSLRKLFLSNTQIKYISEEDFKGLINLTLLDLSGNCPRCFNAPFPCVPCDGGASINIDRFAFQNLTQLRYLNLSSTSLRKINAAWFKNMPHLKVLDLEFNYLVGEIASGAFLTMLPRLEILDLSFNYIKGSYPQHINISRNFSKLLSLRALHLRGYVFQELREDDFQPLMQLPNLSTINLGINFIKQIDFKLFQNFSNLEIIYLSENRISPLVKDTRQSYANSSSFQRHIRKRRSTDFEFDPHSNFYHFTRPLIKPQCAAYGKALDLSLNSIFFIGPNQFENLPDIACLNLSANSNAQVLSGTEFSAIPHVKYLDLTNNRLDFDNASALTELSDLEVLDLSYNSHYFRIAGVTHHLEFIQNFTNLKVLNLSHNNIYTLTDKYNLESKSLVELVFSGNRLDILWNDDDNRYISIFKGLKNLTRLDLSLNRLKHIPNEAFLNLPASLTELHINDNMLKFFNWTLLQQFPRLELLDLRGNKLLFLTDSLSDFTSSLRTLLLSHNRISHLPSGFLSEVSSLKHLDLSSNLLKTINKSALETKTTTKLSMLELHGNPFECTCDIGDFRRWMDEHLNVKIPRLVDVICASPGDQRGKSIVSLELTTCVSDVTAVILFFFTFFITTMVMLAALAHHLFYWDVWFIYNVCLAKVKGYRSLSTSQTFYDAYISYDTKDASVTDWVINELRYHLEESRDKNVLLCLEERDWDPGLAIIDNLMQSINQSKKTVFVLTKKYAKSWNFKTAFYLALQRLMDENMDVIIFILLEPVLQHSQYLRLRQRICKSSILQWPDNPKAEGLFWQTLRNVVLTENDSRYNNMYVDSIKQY
Description: HEK293-Blue-hTLR-8 cells assay. It counts as cell-based. The settings on record: HEK293-Blue-hTLR8 cells, R848 stimulation, 20 hrs, SEAP reporter; read-out: HEK/hTLR8 IC50. Put shortly: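 Antagonism read out in HEK293-Blue-hTLR8 cells carrying an NF-κB/AP-1-driven SEAP reporter, stimulated with R848 (10 μL of 60 uM stock added) alongside serially diluted compound (1% DMSO), 20 h at 37° C. Supernatant SEAP measured with QUANTI-Blue after 2 h at 37° C, absorbance at 620-655 nm.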

Take `C[C@@H]1CN(c2ccc(C#N)c3ncccc23)C[C@@H]2c3ccc(N4C[C@@H]5CNCCN5C4=O)cc3CN12` [Example 71, 5-[(4R,10bS)-8-[(8aS)-3-oxo-1,5,6,7,8,8a-hexahydroimidazo[1,5-a]pyrazin-2-yl]-4-methyl-3,4,6,10b-tetrahydro-1H-pyrazino[2,1-a]isoindol-2-yl]quinoline-8-carbonitrile]: the IC50 was less than 3.2 nM. The value for `C[C@@H]1CN(c2ccc(C#N)c3ncccc23)C[C@@H]2c3ccc(NC[C@@H]4CNCCO4)cc3CN12` [Example 58, 5-[(4R,10bS)-4-methyl-8-[[(2S)-morpholin-2-yl]methylamino]-3,4,6,10b-tetrahydro-1H-pyrazino[2,1-a]isoindol-2-yl]quinoline-8-carbonitrile] was less than 3.2 nM; that for `C[C@@H]1CN(c2ccc(C#N)c3ncccc23)C[C@@H]2c3ccc(OC[C@@H]4C[C@H](F)CN4)cc3CN12` [Example 74, 5-[(4R,10bS)-8-[[(2S,4S)-4-fluoropyrrolidin-2-yl]methoxy]-4-methyl-3,4,6,10b-tetrahydro-1H-pyrazino[2,1-a]isoindol-2-yl]quinoline-8-carbonitrile] was less than 0.3 nM; that for `C[C@@H]1CN(c2ccc(C#N)c3ncccc23)C[C@@H]2c3ccc(N[C@@H]4CNCCOC4)cc3CN12` [Example 56A, 5-[(4R,10bS)-4-methyl-8-[[(6R)-1,4-oxazepan-6-yl]amino]-3,4,6,10b-tetrahydro-1H-pyrazino[2,1-a]isoindol-2-yl]quinoline-8-carbonitrile] was less than 3.2 nM. The value for `C[C@@H]1CN(c2ccc(C#N)c3ncccc23)C[C@@H]2c3cc(F)c(N4C[C@H](N)[C@@](C)(O)C4)cc3CN12` [Example 83, 5-[(4R,10bS)-8-[(3S,4S)-4-amino-3-hydroxy-3-methyl-pyrrolidin-1-yl]-9-fluoro-4-methyl-3,4,6,10b-tetrahydro-1H-pyrazino[2,1-a]isoindol-2-yl]quinoline-8-carbonitrile] was 1 nM; that for `C[C@@H]1CN(c2ccc(C#N)c3ncsc23)C[C@@H]2c3ccc(N[C@H]4CNC[C@H]4F)cc3CN12` [Example 78, 7-[(4R,10bS)-8-[[(3S,4R)-4-fluoropyrrolidin-3-yl]amino]-4-methyl-3,4,6,10b-tetrahydro-1H-pyrazino[2,1-a]isoindol-2-yl]-1,3-benzothiazole-4-carbonitrile] was 0.4 nM. The value for `CO[C@H]1CNCC[C@H]1Nc1ccc2c(c1)CN1[C@H](C)CN(c3ccc(C#N)c4ncccc34)C[C@H]21` [Example 66, 5-[(4R,10bS)-8-[[(3S,4R)-3-methoxy-4-piperidyl]amino]-4-methyl-3,4,6,10b-tetrahydro-1H-pyrazino[2,1-a]isoindol-2-yl]quinoline-8-carbonitrile] was less than 3.2 nM; that for `C[C@@H]1CN(c2ccc(C#N)c3ncccc23)C[C@@H]2c3ccc(NC[C@@H]4C[C@H](F)CN4)cc3CN12` [Example 70, 5-[(4R,10bS)-8-[[(2S,4S)-4-fluoropyrrolidin-2-yl]methylamino]-4-methyl-3,4,6,10b-tetrahydro-1H-pyrazino[2,1-a]isoindol-2-yl]quinoline-8-carbonitrile] was 0.5 nM. Turning to `C[C@@H]1CN(c2ccc(C#N)c3ncccc23)C[C@@H]2c3ccc(NC[C@H]4CNCCO4)cc3CN12` [Example 59, 5-[(4R,10bS)-4-methyl-8-[[(2R)-morpholin-2-yl]methylamino]-3,4,6,10b-tetrahydro-1H-pyrazino[2,1-a]isoindol-2-yl]quinoline-8-carbonitrile], the IC50 was less than 3.2 nM. The value for `C[C@@H]1CN(c2ccc(C#N)c3ncccc23)C[C@@H]2c3ccc(N4C[C@H]5CNCCN5C4=O)cc3CN12` [Example 72, 5-[(4R,10bS)-8-[(8aR)-3-oxo-1,5,6,7,8,8a-hexahydroimidazo[1,5-a]pyrazin-2-yl]-4-methyl-3,4,6,10b-tetrahydro-1H-pyrazino[2,1-a]isoindol-2-yl]quinoline-8-carbonitrile] was less than 3.2 nM; that for `C[C@@H]1CN(c2ccc(C#N)c3ncccc23)C[C@@H]2c3ccc(NCC4COCCN4)cc3CN12` (stereo partly drawn) [Example 57, 5-[(4R,10bS)-4-methyl-8-(morpholin-3-ylmethylamino)-3,4,6,10b-tetrahydro-1H-pyrazino[2,1-a]isoindol-2-yl]quinoline-8-carbonitrile] was less than 3.2 nM. Under `C[C@@H]1CN(c2ccc(C#N)c3ncccc23)C[C@@H]2c3cc(F)c(N4CC5(CNC5)C4)cc3CN12` [Example 84, 5-[(4R,10bS)-8-(2,6-diazaspiro[3.3]heptan-2-yl)-9-fluoro-4-methyl-3,4,6,10b-tetrahydro-1H-pyrazino[2,1-a]isoindol-2-yl]quinoline-8-carbonitrile] stands 1.3 nM. Consider `CO[C@@H]1CNC[C@H]1Nc1cc2c(cc1C)[C@H]1CN(c3ccc(C#N)c4ncccc34)C[C@@H](C)N1C2` [Example 63, 5-[(4R,10bS)-8-[[(3R,4R)-4-methoxypyrrolidin-3-yl]amino]-4,9-dimethyl-3,4,6,10b-tetrahydro-1H-pyrazino[2,1-a]isoindol-2-yl]quinoline-8-carbonitrile], for which the IC50 was 6.2 nM.

As to `C[C@@H]1CN(c2ccc(C(F)(F)F)c3nccnc23)C[C@@H]2c3ccc(N[C@H]4CNC[C@H]4F)cc3CN12` [Example 77, (4R,10bS)—N-[(3S,4R)-4-fluoropyrrolidin-3-yl]-4-methyl-2-[8-(trifluoromethyl)quinoxalin-5-yl]-3,4,6,10b-tetrahydro-1H-pyrazino[2,1-a]isoindol-8-amine], the IC50 was less than 3.2 nM. Under `C[C@@H]1CN(c2ccc(C#N)c3ncccc23)C[C@@H]2c3cccc(NCCN4CC[C@H](O)C4)c3CN12` [Example 80, 5-[(4R,10bS)-7-[2-[(3S)-3-hydroxypyrrolidin-1-yl]ethylamino]-4-methyl-3,4,6,10b-tetrahydro-1H-pyrazino[2,1-a]isoindol-2-yl]quinoline-8-carbonitrile] stands less than 3.2 nM; under `C[C@@H]1CN(c2ccc(C#N)c3ncccc23)C[C@@H]2c3ccc(N[C@H]4CNCCOC4)cc3CN12` [Example 56B, 5-[(4R,10bS)-4-methyl-8-[[(6S)-1,4-oxazepan-6-yl]amino]-3,4,6,10b-tetrahydro-1H-pyrazino[2,1-a]isoindol-2-yl]quinoline-8-carbonitrile], less than 3.2 nM.

On to `[2H]c1ccc2c(N3C[C@@H](C)N4Cc5cc(N6CC7(CNCCO7)C6)ccc5[C@H]4C3)ccc(C#N)c2n1` [Example 90, 5-[(4R,10bS)-4-methyl-8-(5-oxa-2,8-diazaspiro[3.5]nonan-2-yl)-3,4,6,10b-tetrahydro-1H-pyrazino[2,1-a]isoindol-2-yl]-2-deuterio-quinoline-8-carbonitrile], for which the IC50 is less than 0.3 nM.

With `Cc1ccc(N2C[C@@H](C)N3Cc4cc(N[C@H]5CNC[C@H]5F)ccc4[C@H]3C2)c2nccnc12` [Example 76, (4R,10bS)—N-[(3S,4R)-4-fluoropyrrolidin-3-yl]-4-methyl-2-(8-methylquinoxalin-5-yl)-3,4,6,10b-tetrahydro-1H-pyrazino[2,1-a]isoindol-8-amine], the IC50 turned out to be 12.7 nM.

In the case of `CO[C@H]1CNC[C@@H]1N(C)c1ccc2c(c1)CN1[C@H](C)CN(c3ccc(C#N)c4ncccc34)C[C@H]21` [Example 64, 5-[(4R,10bS)-8-[[(3S,4S)-4-methoxypyrrolidin-3-yl]-methyl-amino]-4-methyl-3,4,6,10b-tetrahydro-1H-pyrazino[2,1-a]isoindol-2-yl]quinoline-8-carbonitrile], the IC50 was less than 3.2 nM. Under `C[C@@H]1CN(c2ccc(C#N)c3ncccc23)C[C@@H]2c3cccc(N[C@H]4CNC[C@H]4F)c3CN12` [Example 81, 5-[(4R,10bS)-7-[[(3S,4R)-4-fluoropyrrolidin-3-yl]amino]-4-methyl-3,4,6,10b-tetrahydro-1H-pyrazino[2,1-a]isoindol-2-yl]quinoline-8-carbonitrile] stands less than 3.2 nM.
